Source: PMC10065799, “High-throughput profiling of sequence recognition by tyrosine kinases and SH2 domains using bacterial peptide display” (eLife, 2023)
Square brackets hold non-standard residues; d marks the D form. pY = N[C@@H](Cc1ccc(OP(=O)(O)O)cc1)C(=O)O

How the values were obtained:
c-Abl kinase domain [1] = target: T1, c-Abl kinase domain (Mus musculus, UniProt P00520); test: RP-HPLC assay to measure peptide phosphorylation kinetics; format: biochemical; conditions: purified peptide substrate
T1 sequence (P00520 242-493 limits assumed): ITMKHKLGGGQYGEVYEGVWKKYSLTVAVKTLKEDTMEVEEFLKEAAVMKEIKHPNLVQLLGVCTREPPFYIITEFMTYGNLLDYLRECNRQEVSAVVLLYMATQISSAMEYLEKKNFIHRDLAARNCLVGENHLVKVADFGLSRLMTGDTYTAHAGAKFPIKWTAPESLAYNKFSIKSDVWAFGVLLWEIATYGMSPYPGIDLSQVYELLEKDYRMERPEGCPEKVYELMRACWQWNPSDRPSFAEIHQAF

c-Src kinase domain [2] = target: T2, c-Src kinase domain (Homo sapiens, UniProt P12931); test: as above; format: biochemical; conditions: purified peptide substrate
c-Src kinase domain [3] = target: T2, c-Src kinase domain; test: pTyr-Var library bacterial peptide display kinase screen (enrichment scores); format: biochemical; conditions: for Screen: sheet "Src";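 on AncSZ hit?: Hit requires p below 0.05 and at least twofold variant vs reference change plus filters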;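 on Fyn hit?: Hit requires p below 0.05 and at least twofold variant vs reference change plus filters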;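 on c-Abl hit?: Hit requires p below 0.05 and at least twofold variant vs reference change plus filters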;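 on c-Src hit?: Hit requires p below 0.05 and at least twofold variant vs reference change plus filters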
Fer kinase domain = test: as above; format: biochemical, mouse; conditions: for Screen: sheet "Fer"
EPHB2 kinase domain = test: as above; format: biochemical, human; conditions: for Screen: sheet EPHB2, effect of variant peptide relative to its reference peptide in the pTyr-Var library screen (enrichment scores)
c-Abl kinase domain [4] = target: T1, c-Abl kinase domain; test: as above; format: biochemical
EPHB1 kinase domain = test: as above; format: biochemical, human; conditions: for Screen: sheet EPHB1, effect of the variant peptide relative to its reference peptide in the pTyr-Var library screen (enrichment scores)
Fyn kinase domain = test: as above; format: biochemical, human
Hck kinase domain = test: as above; format: biochemical, human
Jak2 = test: as above; format: biochemical, human
AncSZ kinase domain = test: as above; format: biochemical
Fes = test: as above; format: biochemical
FGFR1 kinase domain = test: as above; format: biochemical, human
FGFR3 kinase domain = test: as above; format: biochemical, human
MERTK kinase domain = test: as above; format: biochemical, human
c-Src SH2 domain = c-Src SH2 domain (Homo sapiens, UniProt P12931); test: pTyr-Var library SH2 domain screen with SH2-dynabeads (enrichment scores); conditions: sheet c-Src
SHP2 C-SH2 domain = test: as above
Grb2 SH2 domain = test: as above
[5] = target: mouse c-Abl kinase domain (residues 232-502) (mouse) (UniProt P00520)
[6] = target: human c-Src SH2 domain (residues 143-250) (human, UniProt P12931-1 143-250, biotin on the Avi tag (co-expression with the biotin ligase BirA)); test: fluorescence polarisation; competition: unlabeled phosphopeptide serially diluted against 30 nM fluorescent peptide and 240 nM (1.5 x KD) c-Src SH2; same buffer; 25 °C; cubic binding equation; conditions: both partners purified
[7] = effect of the variant peptide relative to its reference peptide in the pTyr-Var library screen
[8] = value of the variant peptide against its reference peptide in the pTyr-Var library screen with Fer
[9] = variant peptide versus its reference peptide in the pTyr-Var library screen
[10] = mean of log2 of enrichment over R1-R4
[11] = pTyr-Var library, enrichment score, replicate 1
[12] = pTyr-Var library, enrichment score, replicate 3
[13] = pTyr-Var library, enrichment score, replicate 4
[14] = variant versus reference peptide
[15] = variant versus reference peptide, significant hit TRUE/FALSE
[16] = mean of log2(variant) minus mean of log2(reference)
[17] = mean of log2 enrichment of variant peptide, n = 5
[18] = mean of log2 enrichment of variant peptide, n = 4

Sequence of mouse c-Abl kinase domain (residues 232-502) (mouse) (P00520 232-502): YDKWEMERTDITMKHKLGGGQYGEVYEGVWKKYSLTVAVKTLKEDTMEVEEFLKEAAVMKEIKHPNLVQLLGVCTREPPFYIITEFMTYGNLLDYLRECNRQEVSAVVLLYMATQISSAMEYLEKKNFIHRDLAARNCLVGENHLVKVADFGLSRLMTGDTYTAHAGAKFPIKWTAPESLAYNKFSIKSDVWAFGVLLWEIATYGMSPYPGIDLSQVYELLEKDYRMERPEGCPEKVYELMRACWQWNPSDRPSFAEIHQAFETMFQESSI

Ac-SVEELYAIPPD-NH2 [PEAK1_Y797, pTyr-Var library phosphosite peptide]
Phosphorylation Rate (c-Abl kinase domain [1]): 0.407 s⁻¹

Ac-VASSLYDIFAR-NH2 [GLB1_Y294_L297F, pTyr-Var library variant phosphosite peptide]
Phosphorylation Rate (c-Src kinase domain [2]): 1.477 s⁻¹
Screen (c-Src kinase domain [3]; [7]): 1.173
Screen (Fer kinase domain; [8]): 0.6922
Screen (EPHB2 kinase domain): 0.8382

ELANLYHHVWM [BICD2_Y538_C542W]
Screen (c-Src kinase domain [3]; [7]): 0.8025
Screen (c-Abl kinase domain [4]; fig5-data2, sheet "Abl", Screen for the variant/reference peptide pair, pTyr-Var library): -0.8428
Screen (Fer kinase domain; [8]): 2.831
Screen (EPHB1 kinase domain): 3.328
Screen (EPHB2 kinase domain): 1.55

Ac-EGWQVYRLGAR-NH2 [MISP_Y95, pTyr-Var library phosphosite peptide, non-canonical c-Src substrate]
Phosphorylation Rate (c-Src kinase domain [2]): 0.701 s⁻¹

Ac-LFSEYASVQV-NH2 [SIRPA_Y496_P491L, pTyr-Var library variant peptide, non-canonical c-Abl substrate]
Phosphorylation Rate (c-Abl kinase domain [1]): 0.182 s⁻¹
Screen (c-Src kinase domain [3]; [9]): -0.1318
Screen (Fer kinase domain; variant peptide relative to its reference peptide, pTyr-Var library screen enrichment): 0.5649
Screen (variant relative to reference peptide, measured in the pTyr-Var library screen) (EPHB1 kinase domain; sheet "EPHB1", variant seq vs reference seq, bacterial peptide display enrichment): 0.2454
Screen (EPHB2 kinase domain): 0.1232

QAPPIYLDVLG [NTRK1_Y791_V790I]
Screen (c-Src kinase domain [3]; [9]): 1.261
Screen (Fer kinase domain; [8]): 2.26
Screen (EPHB1 kinase domain): 1.721
Screen (EPHB2 kinase domain): 1.355

ATGLIYIGSHD [AASDH_Y870_T865A]
c-Src mean of log2(enrichment) (c-Src kinase domain [3]; [10]): -1.071
c-Src enrich. R1 (c-Src kinase domain [3]; [11]): 0.5345
c-Src enrich. R3 (c-Src kinase domain [3]; [12]): 0.3128
c-Src enrich. R4 (c-Src kinase domain [3]; [13]): 0.6339
c-Src difference (mean log2 variant - mean log2 reference) (c-Src kinase domain [3]; [14]): 0.2235
c-Src hit? (c-Src kinase domain [3]; [15]): FALSE
Fyn mean of log2(enrichment) (Fyn kinase domain; [10]): -1.279
Fyn enrich. R1 (Fyn kinase domain; [11]): 0.5717
Fyn enrich. R3 (Fyn kinase domain; [12]): 0.2668
Fyn enrich. R4 (Fyn kinase domain; [13]): 0.4414
Fyn difference (mean log2 variant - mean log2 reference) (Fyn kinase domain; [14]): 0.2007
Fyn hit? (Fyn kinase domain; [15]): FALSE
Hck mean of log2(enrichment) (Hck kinase domain; mean of log2(variant) / mean of log2(reference), R1-R4): 0.4694
Hck enrich. R1 (Hck kinase domain; [11]): 0.8875
Hck enrich. R3 (Hck kinase domain; [12]): 0.3766
Hck enrich. R4 (Hck kinase domain; [13]): 0.194
Hck difference (variant - reference) (Hck kinase domain; [14]): 0.009668
Hck hit? (Hck kinase domain; [15]): FALSE
c-Abl mean of log2(enrichment) (c-Abl kinase domain [4]; [10]): -0.2804
c-Abl enrich. R1 (c-Abl kinase domain [4]; [11]): 0.635
c-Abl enrich. R3 (c-Abl kinase domain [4]; [12]): 0.7155
c-Abl enrich. R4 (c-Abl kinase domain [4]; [13]): 1.499
c-Abl hit? (c-Abl kinase domain [4]; [15]): FALSE
Jak2 mean of log2(enrichment) (Jak2; mean of log2 of enrichment over R1-R3): -0.3116
Jak2 enrich. R1 (Jak2; [11]): 0.8629
Jak2 enrich. R3 (Jak2; [12]): 0.7054
Jak2 difference (mean log2 variant - mean log2 reference) (Jak2; [14]): 0.1735
Jak2 hit? (Jak2; [15]): FALSE
AncSZ mean of log2(enrichment) (AncSZ kinase domain; mean of log2 of enrichment over R1-R5): -0.2868
AncSZ enrich. R1 (AncSZ kinase domain; [11]): 0.8707
AncSZ enrich. R3 (AncSZ kinase domain; [12]): 0.8843
AncSZ enrich. R4 (AncSZ kinase domain; [13]): 0.9628
AncSZ enrich. R5 (AncSZ kinase domain; pTyr-Var library, enrichment score, replicate 5): 0.6734
AncSZ difference (mean log2 variant - mean log2 reference) (AncSZ kinase domain; [14]): 0.1813
AncSZ hit? (AncSZ kinase domain; [15]): FALSE
Fer mean of log2(enrichment) (Fer kinase domain; [10]): -1.02
Fer enrich. R1 (Fer kinase domain; [11]): 0.4993
Fer enrich. R3 (Fer kinase domain; [12]): 0.7968
Fer enrich. R4 (Fer kinase domain; [13]): 0.4647
Fer difference (mean log2 variant - mean log2 reference) (Fer kinase domain; [14]): 0.2779
Fer hit? (Fer kinase domain; [15]): FALSE
Fes mean of log2(enrichment) (Fes; mean of log2 of enrichment over R1-R6): 0.1901
Fes enrichment (mean) (Fes; pTyr-Var library, enrichment score, mean of replicates R1-R6): 1.145
Fes difference (mean log2 variant - mean log2 reference) (Fes; [14]): 0.6008
difference (FGFR1 kinase domain; [16]): -0.06079
mean of log2(variant) (FGFR1 kinase domain; [17]): -1.25
difference (FGFR3 kinase domain; [16]): 0.03027
mean of log2(variant) (FGFR3 kinase domain; [17]): -0.6189
difference (EPHB1 kinase domain; [16]): 0.11
mean of log2(variant) (EPHB1 kinase domain; [18]): -0.4876
difference (EPHB2 kinase domain; [16]): 0.3789
mean of log2(variant) (EPHB2 kinase domain; [18]): -0.4994
difference (MERTK kinase domain; [16]): 0.7784
mean of log2(variant) (MERTK kinase domain; [18]): -0.9082
difference (c-Src SH2 domain; [16]): -0.1239
mean of log2(variant) (c-Src SH2 domain; mean of log2 enrichment of variant peptide, R1-R3): -0.9155
difference (SHP2 C-SH2 domain; SHP2-C SH2, mean of log2(variant) minus mean of log2(reference)): -0.2085
mean of log2(variant) (SHP2 C-SH2 domain; SHP2-C SH2, mean of log2 enrichment of variant, R1-R3): -0.9356
hit? (SHP2 C-SH2 domain; SHP2-C SH2, variant versus reference significant hit call): FALSE
difference (Grb2 SH2 domain; Grb2 SH2, mean of log2(variant) minus mean of log2(reference)): -0.4428
mean of log2(variant) (Grb2 SH2 domain; Grb2 SH2, mean of log2 enrichment of variant, R1-R3): -0.4021
hit? (Grb2 SH2 domain; Grb2 SH2, variant versus reference significant hit call): FALSE

Ac-GAPEVIYATPGAKKKG-NH2 [AblTide (2014) peptide Ac-…-NH2]
KM (μM) of phosphorylation, Michaelis-Menten analysis, ADP-Quest assay [5]: 35 µM

B1: CCDC39_Y593 phosphopeptide Ac-QRKQQL(pY)TAMEEG-NH2 (peptide)
peptide: Ac-QRKQQL[pY]TAMEEG-NH2
SMILES: CSCC[C@H](NC(=O)[C@H](C)NC(=O)[C@@H](NC(=O)[C@H](Cc1ccc(OP(=O)(O)O)cc1)NC(=O)[C@H](CC(C)C)NC(=O)[C@H](CCC(N)=O)NC(=O)[C@H](CCC(N)=O)NC(=O)[C@H](CCCCN)NC(=O)[C@H](CCCNC(=N)N)NC(=O)[C@H](CCC(N)=O)NC(C)=O)[C@@H](C)O)C(=O)N[C@@H](CCC(=O)O)C(=O)N[C@@H](CCC(=O)O)C(=O)NCC(N)=O
notes: source: synthetic peptide (synthesized in-house, RP-HPLC purified)
binding result [6]: binds

B2: ACTB_Y240 phosphopeptide Ac-QSLEKS(pY)ELPDGG-NH2 (peptide)
peptide: Ac-QSLEKS[pY]ELPDGG-NH2
SMILES: CC(=O)N[C@@H](CCC(N)=O)C(=O)N[C@@H](CO)C(=O)N[C@@H](CC(C)C)C(=O)N[C@@H](CCC(=O)O)C(=O)N[C@@H](CCCCN)C(=O)N[C@@H](CO)C(=O)N[C@@H](Cc1ccc(OP(=O)(O)O)cc1)C(=O)N[C@@H](CCC(=O)O)C(=O)N[C@@H](CC(C)C)C(=O)N1CCC[C@H]1C(=O)N[C@@H](CC(=O)O)C(=O)NCC(=O)NCC(N)=O
notes: as for B1
binding result [6]: binds

B3: ACTB_Y240_P243L phosphopeptide Ac-QSLEKS(pY)ELLDGG-NH2 (peptide)
peptide: Ac-QSLEKS[pY]ELLDGG-NH2
SMILES: CC(=O)N[C@@H](CCC(N)=O)C(=O)N[C@@H](CO)C(=O)N[C@@H](CC(C)C)C(=O)N[C@@H](CCC(=O)O)C(=O)N[C@@H](CCCCN)C(=O)N[C@@H](CO)C(=O)N[C@@H](Cc1ccc(OP(=O)(O)O)cc1)C(=O)N[C@@H](CCC(=O)O)C(=O)N[C@@H](CC(C)C)C(=O)N[C@@H](CC(C)C)C(=O)N[C@@H](CC(=O)O)C(=O)NCC(=O)NCC(N)=O
notes: as for B1
binding result [6]: binds
